The values that follow are results of earlier work, collected in patent US20050233013A1, “Methods for enhancing the transport of glucose for balancing blood sugar levels” (priority 2004, published 2005).

In this series the test system is pancreatic beta cell. Conditions: micromolar concentrations; glucose dependent; Sauvaire et al, Diabetes 47:206 (1998).

For `C[C@@H]([C@H](C)O)[C@H](N)C(=O)O` [major isomer (2S, 3R, 4S), (2S, 3R, 4S)-4-hydroxyisoleucine], the glucose-induced insulin secretion result is “stimulate glucose-induced insulin secretion”.
